Each block holds one compound with its values, some of them ahead of it.
Columns and labels:
[1] = Cytotoxicity against human HuH7 cells; assay type: cell-based; conditions: Huh-7 cells
[2] = Half life in simulated intestinal fluid; assay type: physicochemical
[3] = Half life in simulated gastric fluid; assay type: physicochemical
[4] = Half life in human liver S9 fraction; assay type: ADME, subcellular
Hepatitis C virus [5] = assay: Antiviral activity against Hepatitis C virus genotype 1b replicon infected in clone A cells assessed as inhibition of viral replication by RT-PCR analysis; assay type: functional, Hepacivirus hominis
[6] = Half life in human plasma; assay type: ADME, cell-free
[7] = Half life in rat plasma; assay type: ADME, cell-free
Hepatitis C virus [8] = assay: Antiviral activity against Hepatitis C virus genotype 1b replicon infected in Lunet cells by luciferase reporter gene assay; assay type: functional, Hepacivirus hominis
CCRF-CEM [9] = assay: Cytotoxicity against human CEM cells up to 100 uM after 8 days by MTT assay; assay type: cell-based; conditions: 192 h
Huh-7 [10] = assay: Prodrug activation in human HuH7 cells infected with HCV genotype 1b assessed as Tmax of beta-D-2'-deoxy-2'-alpha-fluoro-2'-beta-C-methylguanosine triphosphate level at 100 uM; assay type: cell-based; conditions: huh-7, 100 µM
Huh-7 [11] = assay: Cytotoxicity against human HuH7 cells up to 100 uM after 8 days by MTT assay; assay type: cell-based; conditions: huh-7, 192 h
Rattus norvegicus [12] = assay: Prodrug activation in rat liver assessed as beta-D-2'-deoxy-2'-alpha-fluoro-2'-beta-C-methylguanosine monophosphate level at 40 mg/kg, po administered QD as repeated dose measured at 4 hrs post-dosing on day 8; assay type: organism-based; parameters: dose 40 mg/kg, route oral; conditions: in vivo
[13] = Tmax in rat at 40 mg/kg, po administered QD measured after 1 day; assay type: ADME, organism-based; parameters: dose 40 mg/kg, route oral; conditions: in vivo
Rattus norvegicus [14] = assay: Prodrug activation in rat liver assessed as beta-D-2'-deoxy-2'-alpha-fluoro-2'-beta-C-methylguanosine diphosphate level at 40 mg/kg, po administered QD as repeated dose measured at 4 hrs post-dosing on day 8; assay type: organism-based; parameters: dose 40 mg/kg, route oral; conditions: in vivo
CCRF-CEM [15] = assay: Mitochondrial toxicity against human CEM cells assessed as decrease in ribosomal DNA up to 100 uM after 14 days by RT-PCR analysis; assay type: cell-based; conditions: 336 h
HepG2 [16] = assay: Mitochondrial toxicity against human HepG2 cells assessed as decrease in mitochondrial COX2 DNA up to 100 uM after 14 days by RT-PCR analysis; assay type: cell-based; conditions: hepg2, 336 h
Hepatitis C virus [17] = assay: Antiviral activity against Hepatitis C virus expressing NS5B S282T mutant by cell-based replicon assay; assay type: functional, Hepacivirus hominis
Hepatocyte = assay: Prodrug activation in human primary hepatocytes assessed as assessed as Tmax of beta-D-2'-deoxy-2'-alpha-fluoro-2'-beta-C-methylguanosine triphosphate level at 100 uM; assay type: cell-based, Liver
[18] = Cmax in rat at 40 mg/kg, po administered QD measured after 7 days; assay type: ADME, organism-based; parameters: dose 40 mg/kg, route oral; conditions: in vivo
Rattus norvegicus [19] = assay: Tlast in rat at 40 mg/kg, po administered QD measured after 1 day; assay type: ADME, organism-based; parameters: dose 40 mg/kg, route oral; conditions: in vivo, 24 h
[20] = AUC (infinity) in rat at 40 mg/kg, po administered QD measured after 1 day; assay type: ADME, organism-based; parameters: time infinity, dose 40 mg/kg, route oral; conditions: plasma
Hepatitis C virus [21] = assay: Ratio of PSI-352938 EC90 to compound EC90 for Hepatitis C virus genotype 1b infected in clone A cells; assay type: functional, Hepacivirus hominis
[22] = Half life in rat at 40 mg/kg, po administered QD measured after 1 day; assay type: ADME, organism-based; parameters: dose 40 mg/kg, route oral; conditions: in vivo
[23] = AUClast in rat at 40 mg/kg, po administered QD measured after 7 days; assay type: ADME, organism-based; parameters: dose 40 mg/kg, route oral; conditions: plasma
[24] = AUClast in rat at 40 mg/kg, po administered QD measured after 1 day; assay type: ADME, organism-based; parameters: dose 40 mg/kg, route oral; conditions: plasma
Rattus norvegicus [25] = assay: Prodrug activation in rat liver assessed as total nucleotide level at 40 mg/kg, po administered QD as repeated dose measured at 4 hrs post-dosing on day 8; assay type: organism-based; parameters: dose 40 mg/kg, route oral; conditions: in vivo
Rattus norvegicus [26] = assay: Prodrug activation in rat liver assessed as free nucleoside level at 40 mg/kg, po administered QD as repeated dose measured at 4 hrs post-dosing on day 8; assay type: organism-based; parameters: dose 40 mg/kg, route oral; conditions: in vivo
BXPC-3 = assay: Cytotoxicity against human BxPC3 cells up to 100 uM after 8 days by MTT assay; assay type: cell-based; conditions: bxpc-3, 192 h
Rattus norvegicus [27] = assay: Prodrug conversion in rat liver assessed as beta-D-2'-deoxy-2'-alpha-fluoro-2'-beta-C-methylguanosine triphosphate level at 40 mg/kg, po administered QD as repeated dose measured at 4 hrs post-dosing on day 8; assay type: ADME, organism-based; parameters: dose 40 mg/kg, route oral; conditions: in vivo
HepG2 [28] = assay: Cytotoxicity against human HepG2 cells up to 100 uM after 8 days by MTT assay; assay type: cell-based; conditions: hepg2, 192 h
Rattus norvegicus [29] = assay: Tlast in rat at 40 mg/kg, po administered QD measured after 7 days; assay type: ADME, organism-based; parameters: dose 40 mg/kg, route oral; conditions: in vivo, 168 h
[30] = Half life in rat at 40 mg/kg, po administered QD measured after 7 days; assay type: ADME, organism-based; parameters: dose 40 mg/kg, route oral; conditions: in vivo
CCRF-CEM [31] = assay: Mitochondrial toxicity against human CEM cells assessed as decrease in mitochondrial COX2 DNA up to 100 uM after 14 days by RT-PCR analysis; assay type: cell-based; conditions: 336 h
[32] = AUC (infinity) in rat at 40 mg/kg, po administered QD measured after 7 days; assay type: ADME, organism-based; parameters: time infinity, dose 40 mg/kg, route oral; conditions: plasma
[33] = Tmax in rat at 40 mg/kg, po administered QD measured after 7 days; assay type: ADME, organism-based; parameters: dose 40 mg/kg, route oral; conditions: in vivo
[34] = Cmax in rat at 40 mg/kg, po administered QD measured after 1 day; assay type: ADME, organism-based; parameters: dose 40 mg/kg, route oral; conditions: in vivo
HepG2 [35] = assay: Mitochondrial toxicity against human HepG2 cells assessed as decrease in ribosomal DNA up to 100 uM after 14 days by RT-PCR analysis; assay type: cell-based; conditions: hepg2, 336 h
Hepatitis C virus [36] = assay: Antiviral activity against Hepatitis C virus infected in po dosed human assessed as log reduction in viral load; assay type: functional, Hepacivirus hominis

half-life [2]: > 20 h
half-life [3]: > 20 h
half-life [4]: > 24 h
EC90 (Hepatitis C virus [5]): 680 nM
half-life [6]: > 24 h
half-life [7]: 5.6 h
EC90 (Hepatitis C virus [8]): 25.8 nM
Structure (SMILES): COc1nc(N)nc2c1ncn2[C@@H]1O[C@@H]2COP(=O)(OC(C)C)O[C@H]2[C@@]1(C)F (some centres undefined)
CC90 [1]: > 100000 nM

EC90 (Hepatitis C virus [8]): 35.8 nM
Structure (SMILES): CCOP1(=O)OC[C@H]2O[C@@H](n3cnc4c(OC)nc(N)nc43)[C@](C)(F)[C@@H]2O1 (some centres undefined)
CC90 [1]: > 10000 nM

Tmax (Huh-7 [10]): 96 h
half-life [2]: > 20 h
Tmax (Hepatocyte): 24 h
half-life [3]: > 20 h
half-life [4]: > 24 h
EC90 (Hepatitis C virus [5]): 1370 nM
half-life [6]: > 24 h
half-life [7]: > 24 h
EC90 (Hepatitis C virus [8]): 740 nM
Structure (SMILES): CCOc1nc(N)nc2c1ncn2[C@@H]1O[C@@H]2COP(=O)(OC(C)C)O[C@H]2[C@@]1(C)F (some centres undefined) [PSI-352938]
Activity (Hepatitis C virus [36]): >5 log10IU/ml
CC90 [1]: > 100000 nM

More lines, now with the values behind:

Structure (SMILES): CC(C)Oc1nc(N)nc2c1ncn2[C@@H]1O[C@@H]2COP(=O)(O)O[C@H]2[C@@]1(C)F
EC90 (Hepatitis C virus [8]): > 10000 nM

Structure (SMILES): COc1nc(N)nc2c1ncn2[C@@H]1O[C@@H]2COP(=O)(OCc3ccccc3)O[C@H]2[C@@]1(C)F (some centres undefined)
CC90 [1]: > 10000 nM
EC90 (Hepatitis C virus [8]): 70 nM

Structure (SMILES): COc1nc(N)nc2c1ncn2[C@@H]1O[C@@H]2COP(=O)(O)O[C@H]2[C@@]1(C)F
CC90 [1]: > 100000 nM
EC90 (Hepatitis C virus [8]): 180 nM

Structure (SMILES): CCOP1(=O)OC[C@H]2O[C@@H](n3cnc4c(OC(C)C)nc(N)nc43)[C@](C)(F)[C@@H]2O1 (some centres undefined)
EC90 (Hepatitis C virus [8]): 2250 nM

Structure (SMILES): COc1nc(N)nc2c1ncn2[C@@H]1O[C@@H]2COP(=O)(OC3CCC3)O[C@H]2[C@@]1(C)F (some centres undefined)
Activity (CCRF-CEM [9]): Non-toxic
Tmax (Huh-7 [10]): 48 h
CC90 [1]: > 100000 nM
Activity (Huh-7 [11]): Non-toxic
Drug metabolism (Rattus norvegicus [12]): 29.9 nmol/g
half-life [2]: < 6 h
Tmax [13]: 1.67 h
Drug metabolism (Rattus norvegicus [14]): 32.36 nmol/g
Activity (CCRF-CEM [15]): Non-toxic
Activity (HepG2 [16]): Non-toxic
EC90 (Hepatitis C virus [17]): 67 nM
Tmax (Hepatocyte): > 48 h
Cmax [18]: 5170 ng/mL
Tlast (Rattus norvegicus [19]): 20 h
AUC(0-inf) [20]: 9500 ng·h/mL
Ratio (Hepatitis C virus [21]): >=10
half-life [22]: 1.32 h
AUC(0-t) at 168 h [23]: 13900 ng·h/mL
half-life [3]: < 4 h
half-life [4]: 2.6 h
EC90 (Hepatitis C virus [5]): 135 nM
AUC(0-t) at 24 h [24]: 9480 ng·h/mL
Drug metabolism (Rattus norvegicus [25]): 65.93 nmol/g
Drug metabolism (Rattus norvegicus [26]): 15.5 nmol/g
half-life [6]: 18.3 h
Activity (BXPC-3): Non-toxic
Drug metabolism (Rattus norvegicus [27]): 3.69 nmol/g
Activity (HepG2 [28]): Non-toxic
Tlast (Rattus norvegicus [29]): 20 h
half-life [7]: 15.8 h
half-life [30]: 1.43 h
Activity (CCRF-CEM [31]): Non-toxic
AUC(0-inf) [32]: 13900 ng·h/mL
Tmax [33]: 4 h
EC90 (Hepatitis C virus [8]): 46 nM
Cmax [34]: 2080 ng/mL
Activity (HepG2 [35]): Non-toxic
